Key:
MDA-MB-231 = test: Cell growth inhibition, CellTiter-Glo Luminescent Cell Viability Assay, MDA-MB-231; type: cell-based; conditions: Homo sapiens, MDA-MB-231 cells, 4 days incubation
Method: (§1) Cell growth inhibitory activity of representative Compounds of the Disclosure was determined in various cell lines using CellTiter-Glo® Luminescent Cell Viability Assay. Cells were seeded in 384-well white opaque cell culture plates at a density of 2,000 cells/well with serially diluted compounds and incubated at 37° C. in an atmosphere of 95% air and 5% CO2 for 4 days. Cell viability was determined using the CellTiter-Glo® Luminescent Cell Viability Assay Kit (Promega, Madison, Wis.) according to the manufacture's instruction. Briefly, a volume of CellTiter-Glo® Reagent equal to the volume of cell culture medium was added to each well, and then the plates were incubated at room temperature for 10-20 minutes. The luminescent signal was measured using a Tecan Infinite M1000 multimode microplate reader (Tecan, Morrisville, N.C.). The half maximal inhibitory concentration (IC50) was calculated using the GraphPad Prism 5 software (GraphPad Software, La Jolla, Calif.).

MOLM-13 = test: Cell growth inhibition, CellTiter-Glo Luminescent Cell Viability Assay, MOLM-13; type: cell-based; conditions: Homo sapiens, MOLM-13 cells, 4 days incubation
Method: as §1

IC50 (MDA-MB-231; MDA-MB-231, 96 h) [nM]	IC50 (MOLM-13; MOLM-13, 96 h) [nM]	SMILES	IC50 (MDA-MB-231; 96 h) [nM]	IC50 (MOLM-13; 96 h) [nM]
0.3	0.8	Cc1c(C#Cc2cnn(CCN3CCN(c4cccc5c4C(=O)N(C4CCC(=O)NC4=O)C5=O)CC3)c2)sc2c1C(c1ccc(Cl)cc1)=N[C@@H](C)c1nnc(C)n1-2 (stereo partly drawn) [compound 183, 4-(4-(2-(4-(((S)-4-(4-chlorophenyl)-3,6,9-trimethyl-6H-thieno[3,2-f][1,2,4]triazolo[4,3-a][1,4]diazepin-2-yl)ethynyl)-1H-pyrazol-1-yl)ethyl)piperazin-1-yl)-2-(2,6-dioxopiperidin-3-yl)isoindoline-1,3-dione]	–	–
–	–	Cc1c(C#Cc2ccc(OCCC#Cc3cccc4c3CN(C3CCC(=O)NC3=O)C4=O)cn2)sc2c1C(c1ccc(Cl)cc1)=NCc1nnc(C)n1-2 (stereo not shown) [Cpd. No. 15, 3-(4-(4-((6-((4-(4-chlorophenyl)-3,9-dimethyl-6H-thieno[3,2-f][1,2,4]triazolo[4,3-a][1,4]diazepin-2-yl)ethynyl)pyridin-3-yl)oxy)but-1-yn-1-yl)-1-oxoisoindolin-2-yl)piperidine-2,6-dione]	39.1	82.6
0.67	0.42	Cc1c(C#Cc2cnn(CCCCN3CCC(Nc4cccc5c4CN(C4CCC(=O)NC4=O)C5=O)CC3)c2)sc2c1C(c1ccc(Cl)cc1)=NCc1nnc(C)n1-2 (stereo not shown) [compound 149, 3-(4-((1-(4-(4-((4-(4-chlorophenyl)-3,9-dimethyl-6H-thieno[3,2-f][1,2,4]triazolo[4,3-a][1,4]diazepin-2-yl)ethynyl)-1H-pyrazol-1-yl)butyl)piperidin-4-yl)amino)-1-oxoisoindolin-2-yl)piperidine-2,6-dione]	–	–
1.5	0.24 ± 0.06	Cc1ncsc1-c1ccc([C@H](C)NC(=O)[C@@H]2C[C@@H](O)CN2C(=O)[C@@H](NC(=O)COCCOCCOCCOCCn2cc(C#Cc3sc4c(c3C)C(c3ccc(Cl)cc3)=N[C@@H](C)c3nnc(C)n3-4)cn2)C(C)(C)C)cc1 [compound 198, (2S,4R)-1-((S)-2-(tert-butyl)-17-(4-(((S)-4-(4-chlorophenyl)-3,6,9-trimethyl-6H-thieno[3,2-f][1,2,4]triazolo[4,3-a][1,4]diazepin-2-yl)ethynyl)-1H-pyrazol-1-yl)-4-oxo-6,9,12,15-tetraoxa-3-azaheptadecanoyl)-4-hydroxy-N-((S)-1-(4-(4-methylthiazol-5-yl)phenyl)ethyl)pyrrolidine-2-carboxamide]	–	–
0.1	0.5	Cc1c(C#Cc2cnn(CCCCNc3ccc4c(c3)CN(C3CCC(=O)NC3=O)C4=O)c2)sc2c1C(c1ccc(Cl)cc1)=N[C@@H](C)c1nnc(C)n1-2 (stereo partly drawn) [compound 184, 3-(5-((4-(4-(((S)-4-(4-chlorophenyl)-3,6,9-trimethyl-6H-thieno[3,2-f][1,2,4]triazolo[4,3-a][1,4]diazepin-2-yl)ethynyl)-1H-pyrazol-1-yl)butyl)amino)-1-oxoisoindolin-2-yl)piperidine-2,6-dione]	–	–
> 100	> 100	Cc1c(C#Cc2cnn(CCCC#Cc3cccc4c3C(=O)N(C3CCCNC3=O)C4=O)c2)sc2c1C(c1ccc(Cl)cc1)=NCc1nnc(C)n1-2 (stereo not shown) [compound 159, 4-(5-(4-((4-(4-chlorophenyl)-3,9-dimethyl-6H-thieno[3,2-f][1,2,4]triazolo[4,3-a][1,4]diazepin-2-yl)ethynyl)-1H-pyrazol-1-yl)pent-1-yn-1-yl)-2-(2-oxopiperidin-3-yl)isoindoline-1,3-dione]	–	–
5.4	2.4	Cc1c(C#Cc2cnn(CCOCCOCCOCC#Cc3cccc4c3CN(C3CCC(=O)NC3=O)C4=O)c2)sc2c1C(c1ccc(Cl)cc1)=N[C@@H](CC(N)=O)c1nnc(C)n1-2 (stereo partly drawn) [compound 195, 2-((6S)-4-(4-chlorophenyl)-2-((1-(2-(2-(2-((3-(2-(2,6-dioxopiperidin-3-yl)-1-oxoisoindolin-4-yl)prop-2-yn-1-yl)oxy)ethoxy)ethoxy)ethyl)-1H-pyrazol-4-yl)ethynyl)-3,9-dimethyl-6H-thieno[3,2-f][1,2,4]triazolo[4,3-a][1,4]diazepin-6-yl)acetamide]	–	–
532	> 1000	Cc1c(C#Cc2ccc(CCC#Cc3cccc4c3CN(C3CCC(=O)NC3=O)C4=O)cn2)sc2c1C(c1ccc(Cl)cc1)=NCc1nnc(C)n1-2 (stereo not shown) [compound 181, 3-(4-(4-(6-((4-(4-chlorophenyl)-3,9-dimethyl-6H-thieno[3,2-f][1,2,4]triazolo[4,3-a][1,4]diazepin-2-yl)ethynyl)pyridin-3-yl)but-1-yn-1-yl)-1-oxoisoindolin-2-yl)piperidine-2,6-dione]	–	–
> 100	> 100	Cc1c(C#Cc2cnn(CCn3cnc(COc4cccc5c4CN(C4CCC(=O)NC4=O)C5=O)c3)c2)sc2c1C(c1ccc(Cl)cc1)=NCc1nnc(C)n1-2 (stereo not shown) [compound 154, 3-(4-((1-(2-(4-((4-(4-chlorophenyl)-3,9-dimethyl-6H-thieno[3,2-f][1,2,4]triazolo[4,3-a][1,4]diazepin-2-yl)ethynyl)-1H-pyrazol-1-yl)ethyl)-1H-imidazol-4-yl)methoxy)-1-oxoisoindolin-2-yl)piperidine-2,6-dione]	–	–
0.04	0.2	Cc1c(C#Cc2cnn(CCCCCc3ccc4c(c3)CN(C3CCC(=O)NC3=O)C4=O)c2)sc2c1C(c1ccc(Cl)cc1)=N[C@@H](C)c1nnc(C)n1-2 (stereo partly drawn) [compound 180, 3-(5-(5-(4-(((S)-4-(4-chlorophenyl)-3,6,9-trimethyl-6H-thieno[3,2-f][1,2,4]triazolo[4,3-a][1,4]diazepin-2-yl)ethynyl)-1H-pyrazol-1-yl)pentyl)-1-oxoisoindolin-2-yl)piperidine-2,6-dione]	–	–
12.2	8.7	Cc1c(C#Cc2cnn(CCCCn3cnc(CNc4cccc5c4CN(C4CCC(=O)NC4=O)C5=O)c3)c2)sc2c1C(c1ccc(Cl)cc1)=NCc1nnc(C)n1-2 (stereo not shown) [compound 152, 3-(4-(((1-(4-(4-((4-(4-chlorophenyl)-3,9-dimethyl-6H-thieno[3,2-f][1,2,4]triazolo[4,3-a][1,4]diazepin-2-yl)ethynyl)-1H-pyrazol-1-yl)butyl)-1H-imidazol-4-yl)methyl)amino)-1-oxoisoindolin-2-yl)piperidine-2,6-dione]	–	–
93	42.3	Cc1ncsc1-c1ccc([C@H](C)NC(=O)[C@@H]2C[C@@](C)(O)CN2C(=O)[C@@H](NC(=O)COCCCn2cc(C#Cc3sc4c(c3C)C(c3ccc(Cl)cc3)=N[C@@H](C)c3nnc(C)n3-4)cn2)C(C)(C)C)cc1 [compound 205, (2S,4R)-1-((S)-2-(2-(3-(4-(((S)-4-(4-chlorophenyl)-3,6,9-trimethyl-6H-thieno[3,2-f][1,2,4]triazolo[4,3-a][1,4]diazepin-2-yl)ethynyl)-1H-pyrazol-1-yl)propoxy)acetamido)-3,3-dimethylbutanoyl)-4-hydroxy-4-methyl-N-((S)-1-(4-(4-methylthiazol-5-yl)phenyl)ethyl)pyrrolidine-2-carboxamide]	–	–
0.4	0.2	Cc1c(C#Cc2cnn(CCOCCOCCOCC#Cc3cccc4c3CN(C3CCC(=O)NC3=O)C4=O)c2)sc2c1C(c1ccc(Cl)cc1)=N[C@@H](C)c1nnc(C)n1-2 (stereo partly shown) [compound 196]	–	–
0.1	0.2	Cc1c(C#Cc2cnn(CCCNc3ccc4c(c3)CN(C3CCC(=O)NC3=O)C4=O)c2)sc2c1C(c1ccc(Cl)cc1)=N[C@@H](C)c1nnc(C)n1-2 (stereo partly drawn) [compound 185, 3-(5-((3-(4-(((S)-4-(4-chlorophenyl)-3,6,9-trimethyl-6H-thieno[3,2-f][1,2,4]triazolo[4,3-a][1,4]diazepin-2-yl)ethynyl)-1H-pyrazol-1-yl)propyl)amino)-1-oxoisoindolin-2-yl)piperidine-2,6-dione]	–	–
1.7	2.8	Cc1c(C#Cc2ccc(CCC#Cc3cccc4c3CN(C3CCC(=O)NC3=O)C4=O)cn2)sc2c1C(c1ccc(Cl)cc1)=N[C@@H](C)c1nnc(C)n1-2 (stereo partly drawn) [compound 182, 3-(4-(4-(6-(((S)-4-(4-chlorophenyl)-3,6,9-trimethyl-6H-thieno[3,2-f][1,2,4]triazolo[4,3-a][1,4]diazepin-2-yl)ethynyl)pyridin-3-yl)but-1-yn-1-yl)-1-oxoisoindolin-2-yl)piperidine-2,6-dione]	–	–
0.43	0.23	Cc1c(C#Cc2ccc(CCCCNc3cccc4c3CN(C3CCC(=O)NC3=O)C4=O)nc2)sc2c1C(c1ccc(Cl)cc1)=N[C@@H](C)c1nnc(C)n1-2 (stereo partly drawn) [Cpd. No. 18, 3-(4-((4-(5-(((S)-4-(4-chlorophenyl)-3,6,9-trimethyl-6H-thieno[3,2-f][1,2,4]triazolo[4,3-a][1,4]diazepin-2-yl)ethynyl)pyridin-2-yl)butyl)amino)-1-oxoisoindolin-2-yl)piperidine-2,6-dione]	–	–
0.2	0.04	CCNC(=O)C[C@@H]1N=C(c2ccc(Cl)cc2)c2c(sc(C#Cc3cnn(CCCN4CCC(Nc5cccc6c5CN(C5CCC(=O)NC5=O)C6=O)CC4)c3)c2C)-n2c(C)nnc21 (stereo partly drawn) [compound 191, 2-((6S)-4-(4-chlorophenyl)-2-((1-(3-(4-((2-(2,6-dioxopiperidin-3-yl)-1-oxoisoindolin-4-yl)amino)piperidin-1-yl)propyl)-1H-pyrazol-4-yl)ethynyl)-3,9-dimthyl-6H-thieno[3,2-f][1,2,4]triazolo[4,3-a][1,4]diazepin-6-yl)-N-ethylacetamide]	–	–

Source: patent US10975093B2, “Fused 1,4-diazepines as BET protein degraders” (THE REGENTS OF THE UNIVERSITY OF MICHIGAN, priority 2016, dated 2021)
